The record followed here is US20080004274A1, “Novel biaromatic compounds that modulate PPAR type receptors and cosmetic/pharmaceutical compositions comprised thereof” (GALDERMA RESEARCH & DEVELOPMENT, priority 2004, published 2008).

Structures are written as SMILES.

Common to all, as to type: cell-based
For one experiment, the target named is T1, PPARγ (Homo sapiens, UniProt P37231).
T1 construct: the reporter is ERE-βGlob-Luc
T1 sequence (P37231 238-505 limits assumed): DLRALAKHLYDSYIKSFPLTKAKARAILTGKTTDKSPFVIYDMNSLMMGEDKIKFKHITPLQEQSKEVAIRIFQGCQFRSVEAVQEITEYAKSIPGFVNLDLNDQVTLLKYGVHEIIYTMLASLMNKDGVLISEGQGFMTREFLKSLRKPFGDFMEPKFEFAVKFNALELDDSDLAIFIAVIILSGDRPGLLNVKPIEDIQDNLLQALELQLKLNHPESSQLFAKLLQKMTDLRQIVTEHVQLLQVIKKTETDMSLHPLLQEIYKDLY
In words: Cross-curve PPAR transactivation test, PPARγ. Particulars: HeLN cells, stable transfectants ERE-βGlob-Luc-SV-Neo and Gal-hPPARγ; luciferase; cross curves against reference agonist, Schild regression; n.a. means not active; read-out: PPAR gamma Kd app. How it is done: (§1) The activation of the receptors with an agonist (activator) in HeLN cells leads to the expression of a reporter gene, luciferase, which, in the presence of a substrate, generates light. The modulation of the receptors is measured by quantifying the luminescence produced after incubating the cells in the presence of a reference agonist. The ligands displace the agonist from its site. The measurement of the activity is performed by quantifying the light produced. This measurement makes it possible to determine the modulatory activity of the compounds according to the invention by determining the constant that is the affinity of the molecule for the receptor. Since this value can fluctuate depending on the basal activity and the expression of the receptor, it is referred to as Kd apparent (KdApp in nM).
(§2) To determine this constant, “cross curves” of the test product against a reference agonist are produced in a 96-well plate: 10 concentrations of the test product plus a concentration 0 are arranged in a line, and 7 concentrations of the agonist plus a concentration 0 are arranged in a column. This is 88 measurement points for 1 product and 1 receptor. The remaining 8 wells are used for repeatability controls.
(§3) Measurements are also taken for total agonist controls with the same products.
(§4) The HeLN cell lines used are stable transfectants containing the plasmids ERE-βGlob-Luc-SV-Neo (reporter gene) and PPAR (α, δ, γ) Gal-hPPAR. These cells are inoculated into 96-well plates at a rate of 10 000 cells per well in 100 μl of DMEM medium without phenol red and supplemented with 10% of defatted calf serum. The plates are then incubated at 37° C. and 7% CO2 for 16 hours.
(§5) The various dilutions of the test products and of the reference ligand are added at a rate of 5 μl per well. The plates are then incubated for 18 hours at 37° C. and 7% CO2. The culture medium is removed by turning over and 100 μl of a 1:1 PBS/luciferin mixture are added to each well. After 5 minutes, the plates are read by the luminescence detector.

A further experiment deals with T2, PPARδ (Homo sapiens, UniProt Q03181).
T2 construct: the reporter is ERE-βGlob-Luc
T2 sequence (Q03181 171-441 limits assumed): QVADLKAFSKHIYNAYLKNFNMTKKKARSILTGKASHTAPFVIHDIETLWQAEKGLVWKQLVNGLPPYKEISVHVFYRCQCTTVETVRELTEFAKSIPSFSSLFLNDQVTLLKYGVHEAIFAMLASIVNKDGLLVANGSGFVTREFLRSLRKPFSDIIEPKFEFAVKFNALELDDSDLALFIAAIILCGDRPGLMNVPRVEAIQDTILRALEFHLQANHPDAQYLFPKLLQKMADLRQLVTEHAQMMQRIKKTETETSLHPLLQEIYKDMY
Description: Cross-curve PPAR transactivation test, PPARδ. Particulars: HeLN cells, stable transfectants ERE-βGlob-Luc-SV-Neo and Gal-hPPARδ; luciferase; cross curves against reference agonist, Schild regression; n.a. means not active; read-out: PPARs delta Kd app. As to the method:
as §1, §2, §3, §4, §5

Another experiment has as its target T3, PPARα (Homo sapiens, UniProt Q07869).
T3 construct: the reporter is ERE-βGlob-Luc
T3 sequence (Q07869 200-468 limits assumed): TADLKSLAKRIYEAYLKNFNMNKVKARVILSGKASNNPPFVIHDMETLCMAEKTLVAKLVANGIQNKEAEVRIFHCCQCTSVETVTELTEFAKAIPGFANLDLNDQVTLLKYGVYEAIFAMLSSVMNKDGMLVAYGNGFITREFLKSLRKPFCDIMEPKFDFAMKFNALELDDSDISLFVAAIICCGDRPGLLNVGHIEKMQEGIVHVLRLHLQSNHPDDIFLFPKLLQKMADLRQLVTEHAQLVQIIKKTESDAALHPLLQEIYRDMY
In words: Cross-curve PPAR transactivation test, PPARα. Particulars: HeLN cells, stable transfectants ERE-βGlob-Luc-SV-Neo and Gal-hPPARα; luciferase; cross curves against reference agonist, Schild regression; n.a. means not active; read-out: PPAR alpha Kd app. As to the method: as §1, §2, §3, §4, §5

Regarding `CCCCN1C(=O)/C(=N/NC(=O)Nc2ccccc2)c2cc(SCCc3ccc(C(=O)O)cc3)ccc21` [Example 14, 4-{2-[3-((anilinocarbonyl)hydrazono)-2-oxo-1-butyl-2,3-dihydro-1H-indol-5-ylsulfanyl]ethyl}benzoic acid], the Kd was 1000 nM on PPARγ, 120 nM on PPARδ and 2000 nM at PPARα.
The corresponding values for `O=C(N/N=C1\C(=O)N(CCc2ccccc2)c2ccc(SCCc3ccc(C(=O)O)cc3)cc21)Nc1ccccc1` [Example 16, 4-{2-[3-((anilinocarbonyl)hydrazono)-2-oxo-1-phenethyl-2,3-dihydro-1H-indol-5-ylsulfanyl]ethyl}benzoic acid] are 500 nM, 4000 nM and 2000 nM.
Regarding `COC(=O)c1ccc(CCSc2ccc3c(c2)/C(=N\NC(=O)Nc2cccc(F)c2)C(=O)N3CCc2ccccc2)cc1` [Example 17, methyl 4-{2-[3-((3-fluoroanilinocarbonyl)hydrazono)-2-oxo-1-phenethyl-2,3-dihydro-1H-indol-5-ylsulfanyl]ethyl}benzoate], the Kd worked out at 1000 nM at PPARγ and 250 nM on PPARα.
As for `CCCCN1C(=O)/C(=N\NC(=O)Nc2cccc(F)c2)c2cc(SCCc3ccc(C(=O)O)cc3)ccc21` [Example 18, 4-{2-[3-((3-fluoroanilinocarbonyl)hydrazono)-2-oxo-1-butyl-2,3-dihydro-1H-indol-5-ylsulfanyl]ethyl}benzoic acid], the Kd at PPARγ is 500 nM; at PPARδ it was 250 nM; on PPARα, 2000 nM.
The matching figures for `CCCCCCCN1C(=O)/C(=N\NC(=O)Nc2cccc(C(F)(F)F)c2)c2cc(SCCc3ccc(C(=O)O)cc3)ccc21` [Example 20, 4-{2-[3-((3-trifluoromethylanilinocarbonyl)hydrazono)-2-oxo-1-heptyl-2,3-dihydro-1H-indol-5-ylsulfanyl]ethyl}benzoic acid]: 1000 nM, 500 nM and 2000 nM.
Consider `CCCCCCCN1C(=O)C(=NNC(=O)Nc2ccccc2Cl)c2cc(SCCc3ccc(C(=O)O)cc3)ccc21` [Example 22, 4-{2-[3((2-chloroanilinocarbonyl)hydrazono)-2-oxo-1-heptyl-2,3-dihydro-1H-indol-5-ylsulfanyl]ethyl}benzoic acid], for which the results for the Kd at PPARγ, at PPARδ and at PPARα were 1000 nM, 60 nM and 2000 nM, respectively.
The matching figures for `O=C(N/N=C1/C(=O)N(CCc2ccccc2)c2ccc(SCCc3ccc(C(=O)O)cc3)cc21)Nc1ccc(C(F)(F)F)cc1Cl` [Example 35, 4-{2-[3((2-chloro-4-trifluoromethylanilinocarbonyl)hydrazono)-2-oxo-1-phenethyl-2,3-dihydro-1H-indol-5-ylsulfanyl]ethyl}benzoic acid]: 250 nM, 500 nM and 8000 nM.
With `CCCCCCN1C(=O)/C(=N/NC(=O)Nc2ccccc2)c2cc(SCCCc3ccc(C(=O)O)cc3)ccc21` [Example 62, 4-[3-(3-((anilinocarbonyl)hydrazono)-2-oxo-1-hexyl-2,3-dihydro-1H-indol-5-ylsulfanyl)propyl]benzoic acid], the Kd at PPARγ was determined as 4000 nM; on PPARδ, 500 nM.
Regarding `CCCCCCN1C(=O)/C(=N/NC(=O)Nc2ccc(F)cc2)c2cc(SCCCc3ccc(C(=O)O)cc3)ccc21` [Example 74, 4-[3-(3-((4-fluoroanilinocarbonyl)hydrazono)-2-oxo-1-hexyl-2,3-dihydro-1H-indol-5-ylsulfanyl)propyl]benzoic acid], the Kd was 4000 nM at PPARγ, 250 nM on PPARδ and 4000 nM at PPARα.
With `CCCCCCCN1C(=O)/C(=N\NC(=O)Nc2ccccc2Cl)c2cc(SCCc3ccc(C(=O)O)cc3)ccc21` [Example 84, 4-{2-[3-((2-chloroanilino)carbonylhydrazono)-2-oxo-1-heptyl-2,3-dihydro-1H-indol-5-ylsulfanyl]ethyl}benzoic acid], the Kd at PPARγ amounted to 1000 nM; on PPARδ, 30 nM; on PPARα, 500 nM.
